Measured values from patent US9439430B2, “Method of controlling resistant harmful plants” (priority 2012, dated 2016).

Key:
[1] = system: BRODI; assay: Greenhouse test, post-emergence (PO) application, foliar effect; type: in vivo, Bromus diformis; conditions: (A) 50, (B) 20, mixture 50 + 20 g of AS/ha, 3 weeks after application
Excerpt: (§1) The 1:1 mixture of the two soil types was used specifically for cultivating small-seeded dicotyledonous weed since the standard field soil on its own tends to silt up, which may have an adverse effect on the emergence of small-seeded weeds. The resistances mentioned in the tables were confirmed beforehand in standard monitoring experiments. Nevertheless, the origins examined may have additional, hitherto unconfirmed resistances to various mechanisms of action.
(§2) The pots were then cultivated in a greenhouse (12-16 h light, temperature day 20-22° C., night 15-18° C.) until the time of application. The pots were treated at various BBCH stages of the seeds/plants on a laboratory track sprayer with spray liquors comprising the compositions according to the invention, mixtures of the prior art or the individual components. Application of the active compounds or active compound combinations and wetting agents formulated as WG, WP, EC or otherwise was carried out at the appropriate growth stages of the plants. The amount of water used for spray application was 100-600 l/ha. After the treatment, the plants were returned to the greenhouses and fertilized and watered as required. The pots were cultivated in a greenhouse (12-16 h light, temperature day 20-22° C., night 15-18° C.).
(§3) 3 weeks after the application, the foliar effect was evaluated on a scale of 0-100%:
(§4) 0%=no noticeable effect compared to untreated plants
(§5) 100%=full effect compared to untreated plants
(§6) The following abbreviations were used: • BBCH the BBCH code provides information about the morphological development stage of a plant. Officially, the abbreviation denotes the Biologische Bundesanstalt, Bundessortenamt and CHemische Industrie [Federal Biological Institute for Agriculture and Forestry, Federal Office for Crop Plant Varieties, Chemical Industry]. The range of BBCH 00-10 denotes the germination stages of the seeds until surface penetration. The range of BBCH 11-25 denotes the leaf development stages until stocking (corresponds to the number of tillers or side-shoots). • PE pre-emergence soil application; BBCH of the seeds/plants 00-10 • PO post-emergence application on the green parts of the plants; BBCH of the plants 11-25 • IU soil loamy silt—standard field soil • l/ha liters per hectare • S sensitive—the weed populations are sensitive to the active compounds tested • TSR target-site resistance. The weed populations comprise biotypes having a site-of-action-specific resistance, i.e. the binding site at the site of action is modified as a result of natural mutations in the gene sequence so that the active compounds are no longer able to bind, or bind in an unsatisfactory manner, and are therefore no longer able to act. • NTR non-target-site herbicide resistance; this is differentiated, inter alia, into EMR (Enhanced Metabolic Resistance) (the weed populations comprise biotypes having metabolic resistance, i.e. the plants are capable of metabolizing the active compounds more quickly via enzyme complexes, i.e. the active compounds are degraded more quickly in the plant), into reduced penetration into the plant, reduced translocation in the plant, accelerated excretion. […]

[2] = system: ERICA; assay: Greenhouse test, pre-emergence (PE) soil application; type: in vivo, Erigeron canadensis; set-up: key: % effect: 0 = no effect, 100 = full effect vs untreated
Excerpt: as §1, §2, §3, §4, §5, §6

[3] = system: ERIBO; assay: Greenhouse test, post-emergence (PO) application, foliar effect; type: in vivo, Erigeron bonariensis; conditions: (A) 50, (B) 20, mixture 50 + 20 g of AS/ha, 3 weeks after application
Excerpt: as §1, §2, §3, §4, §5, §6

[4] = system: KCHSC; assay: Greenhouse test, pre-emergence (PE) soil application; type: in vivo, Kochia scoparia; set-up: key: % effect: 0 = no effect, 100 = full effect vs untreated
Excerpt: as §1, §2, §3, §4, §5, §6

[5] = system: AMATA; assay: Greenhouse test, post-emergence (PO) application, foliar effect; type: in vivo, Amaranthus rudis; conditions: (A) 50, (B) 20, mixture 50 + 20 g of AS/ha, 3 weeks after application
Excerpt: as §1, §2, §3, §4, §5, §6

[6] = system: APESV; assay: as above; type: in vivo, Apera spica-venti; conditions: (A) 50, (B) 20, mixture 50 + 20 g of AS/ha, 3 weeks after application
Excerpt: as §1, §2, §3, §4, §5, §6

[7] = system: BIDSU; assay: Greenhouse test, pre-emergence (PE) soil application; type: in vivo, Bidens subalternans
Excerpt: as §1, §2, §3, §4, §5, §6

[8] = system: AMATA; assay: as above; type: in vivo, Amaranthus rudis; set-up: key: % effect: 0 = no effect, 100 = full effect vs untreated
Excerpt: as §1, §2, §3, §4, §5, §6

[9] = system: ERIBO; assay: as above; type: in vivo, Erigeron bonariensis; set-up: key: % effect: 0 = no effect, 100 = full effect vs untreated
Excerpt: as §1, §2, §3, §4, §5, §6

[10] = system: ERICA; assay: Greenhouse test, post-emergence (PO) application, foliar effect; type: in vivo, Erigeron canadensis; conditions: (A) 50, (B) 20, mixture 50 + 20 g of AS/ha, 3 weeks after application
Excerpt: as §1, §2, §3, §4, §5, §6

[11] = system: TTTTT (all resistant and sensitive biotypes); assay: Greenhouse test, PE application, mean over all resistant and sensitive biotypes; type: in vivo; conditions: (A) 12.5, (B) 20, mixture 12.5 + 20 g of AS/ha; for TTTTT resistant mean (effect): mean of resistant biotypes (n = 16); for TTTTT sensitive mean (effect): mean of sensitive biotypes (n = 11)
Excerpt: as §1, §2, §3, §4, §5, §6

[12] = system: AMAPA; assay: Greenhouse test, post-emergence (PO) application, foliar effect; type: in vivo, Amaranthus palmeri; conditions: AMAPA resistant - group B (TSR), C1 (TSR) and G (NTR), (A) 50, (B) 20, mixture 50 + 20 g of AS/ha, 3 weeks after application
Excerpt: as §1, §2, §3, §4, §5, §6

[13] = system: CHEAL; assay: as above; type: in vivo, Chenopodium album; conditions: (A) 50, (B) 20, mixture 50 + 20 g of AS/ha, 3 weeks after application
Excerpt: as §1, §2, §3, §4, §5, §6

[14] = system: TTTTT (all resistant and sensitive biotypes); assay: Greenhouse test, PO application, mean over all resistant and sensitive biotypes; type: in vivo; conditions: (A) 50, (B) 20, mixture 50 + 20 g of AS/ha; for TTTTT resistant mean (effect): mean of resistant biotypes (n = 17 or n = 15); for TTTTT sensitive mean (effect): mean of sensitive biotypes (n = 11)
Excerpt: as §1, §2, §3, §4, §5, §6

[15] = system: BRODI; assay: Greenhouse test, pre-emergence (PE) soil application; type: in vivo, Bromus diformis; set-up: key: % effect: 0 = no effect, 100 = full effect vs untreated
Excerpt: as §1, §2, §3, §4, §5, §6

[16] = BRODI resistant - group A (TSR), B (NTR) and G (NTR)
[17] = ERIBO resistant - group B (NA) and G (NTR)
[18] = AMATA resistant - group B (TSR), C1 (TSR)
[19] = APESV resistant - group B (TSR, NTR) and K1/3 (NA)
[20] = ERICA resistant - group B (NA) and G (NTR)
[21] = CHEAL resistant - group B (TSR), C1 (NA) and G (NTR)
[22] = group (B) compound alone, 20 g of AS/ha

Structure (SMILES)	foliar effect [1, 16] [%]	foliar effect ([1]; BRODI sensitive) [%]	foliar effect [3, 17] [%]	foliar effect ([3]; ERIBO sensitive) [%]	foliar effect [5, 18] [%]	foliar effect ([5]; AMATA sensitive) [%]	foliar effect [6, 19] [%]	foliar effect ([6]; APESV sensitive) [%]	foliar effect [10, 20] [%]	foliar effect ([10]; ERICA sensitive) [%]	TTTTT resistant mean (effect) [11] [%]	TTTTT sensitive mean (effect) [11] [%]	foliar effect [12] [%]	foliar effect [13, 21] [%]	foliar effect ([13]; CHEAL sensitive) [%]	TTTTT resistant mean (effect) [14] [%]	TTTTT sensitive mean (effect) [14] [%]	effect on ERICA resistant - group B (NA) and G (NTR) [2, 22]	effect on ERICA sensitive [2, 22]	effect on KCHSC resistant - group B (TSR) [4, 22]	further results
Cc1ccc2c(c1)[C@H](Nc1nc(N)nc(C(C)F)n1)[C@@H](C)C2 (some centres unmarked) [(A), indaziflam]	65	70	50	50	40	50	60	65	50	50	52	68	50	70	70	53	58				effect on ERICA resistant - group B (NA) and G (NTR) ([2]; (A) alone, 12.5 g of AS/ha): 60; effect on ERICA sensitive ([2]; (A) alone, 12.5 g of AS/ha): 70; effect on KCHSC resistant - group B (TSR) ([4]; (A) alone, 12.5 g of AS/ha): 40; effect on KCHSC sensitive ([4]; (A) alone, 12.5 g of AS/ha): 40; effect on BIDSU sensitive ([7]; (A) alone, 12.5 g of AS/ha): 50; effect on AMATA resistant - group B (TSR), C1 (TSR) ([8]; (A) alone, 12.5 g of AS/ha): 70; effect on AMATA sensitive ([8]; (A) alone, 12.5 g of AS/ha): 70; effect on ERIBO resistant - group B (NA) and G (NTR) ([9]; (A) alone, 12.5 g of AS/ha): 60; effect on ERIBO sensitive ([9]; (A) alone, 12.5 g of AS/ha): 70; effect on BRODI resistant - group A (TSR), B (NTR) and G (NTR) ([15]; (A) alone, 12.5 g of AS/ha): 70; effect on BRODI sensitive ([15]; (A) alone, 12.5 g of AS/ha): 75
COc1cc(OC)nc(NC(=O)NS(=O)(=O)c2ncccc2C(F)(F)F)n1 [(B1), flazasulfuron]	75	100	50	90	50	60	30	100	50	90	32	75	40	70	80	40	87	0	70	0	effect on KCHSC sensitive [4, 22]: 70; effect on BIDSU sensitive [7, 22]: 80; effect on AMATA sensitive [8, 22]: 70; effect on ERIBO resistant - group B (NA) and G (NTR) [9, 22]: 0; effect on ERIBO sensitive [9, 22]: 70; effect on BRODI resistant - group A (TSR), B (NTR) and G (NTR) [15, 22]: 70; effect on BRODI sensitive [15, 22]: 80
COc1cc(OC)nc(NC(=O)NS(=O)(=O)c2cc(NC=O)ccc2C(=O)N(C)C)n1 [(B2), foramsulfuron]	75	100	40	50	90	40	0	100	40	50	22	73	40	70	70	34	74	0	100	0	effect on KCHSC sensitive [4, 22]: 60; effect on BIDSU sensitive [7, 22]: 30; effect on AMATA sensitive [8, 22]: 60; effect on ERIBO resistant - group B (NA) and G (NTR) [9, 22]: 0; effect on ERIBO sensitive [9, 22]: 100; effect on BRODI resistant - group A (TSR), B (NTR) and G (NTR) [15, 22]: 70; effect on BRODI sensitive [15, 22]: 75
CCS(=O)(=O)c1cccnc1S(=O)(=O)NC(=O)Nc1nc(OC)cc(OC)n1 [(B3), rimsulfuron]	75	100	60	90	90	70	20	100	60	90	24	75	70	70	80	46	88	0	70	20	effect on KCHSC sensitive [4, 22]: 80; effect on BIDSU sensitive [7, 22]: 80; effect on AMATA sensitive [8, 22]: 70; effect on ERIBO resistant - group B (NA) and G (NTR) [9, 22]: 0; effect on ERIBO sensitive [9, 22]: 70; effect on BRODI resistant - group A (TSR), B (NTR) and G (NTR) [15, 22]: 70; effect on BRODI sensitive [15, 22]: 80
CCOC(=O)c1ccccc1S(=O)(=O)NC(=O)Nc1nc(Cl)cc(OC)n1 [(B4), chlorimuron-ethyl]	70	100	60	80	60	30	0	100	60	80	29	82	30	50	60	31	72	0	100	0	effect on KCHSC sensitive [4, 22]: 50; effect on BIDSU sensitive [7, 22]: 90; effect on AMATA resistant - group B (TSR), C1 (TSR) [8, 22]: 50; effect on AMATA sensitive [8, 22]: 60; effect on ERIBO resistant - group B (NA) and G (NTR) [9, 22]: 0; effect on ERIBO sensitive [9, 22]: 100; effect on BRODI resistant - group A (TSR), B (NTR) and G (NTR) [15, 22]: 80; effect on BRODI sensitive [15, 22]: 95
